These results are taken from patent US12128045B2, “Platinum-resistant cancer treatment” (BTG International Limited, priority 2017, dated 2024).

Series [1] can be described thus: Phase I trial EudraCT3941 (Example 1): pharmacokinetics. In kind it is in vivo, human. The text has this: (§1) Methods: A 3+3 dose escalation design was used and two IV schedules were explored. Schedule A, weekly dosing (QW) and schedule B, once every 2 weeks dosing (Q2W). A cycle consisted of 4 weeks and treatment was stopped after 6 cycles in both schedules. An expansion cohort to evaluate clinical activity in patients with FR-α overexpressing high grade serous ovarian cancer (HGSOC) was initiated.

The nature of series [2]: Half life on administration to man. The note with it: in vivo.
For series [3], the target named is alpha-folate receptor (FR-α) (Homo sapiens, UniProt P15328). The note with it: relative to folic acid; Theti et al., 2003; cited from earlier work.
Chain of alpha-folate receptor (FR-α) (P15328 25-234, species assumed): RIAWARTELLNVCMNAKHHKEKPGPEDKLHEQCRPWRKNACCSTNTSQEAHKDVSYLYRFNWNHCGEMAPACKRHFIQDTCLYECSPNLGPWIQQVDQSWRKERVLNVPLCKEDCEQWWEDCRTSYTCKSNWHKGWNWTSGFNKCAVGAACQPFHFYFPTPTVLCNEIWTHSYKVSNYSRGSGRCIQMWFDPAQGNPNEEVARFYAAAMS
The test system of series [4] is high grade serous ovarian cancer (HGSOC). Description: Phase I trial EudraCT3941 (Example 1): tumour response (RECIST partial responses). It is filed as in vivo, human.
Description: as §1

The conditions of series [5]: in vivo; cited from earlier work.
The target in the next series is T1, thymidylate synthase (Homo sapiens, UniProt P04818).
T1 construct: from tissue; host or cells: tumour tissue of trial patients, in vivo
T1 sequence (P04818 2-313 limits assumed): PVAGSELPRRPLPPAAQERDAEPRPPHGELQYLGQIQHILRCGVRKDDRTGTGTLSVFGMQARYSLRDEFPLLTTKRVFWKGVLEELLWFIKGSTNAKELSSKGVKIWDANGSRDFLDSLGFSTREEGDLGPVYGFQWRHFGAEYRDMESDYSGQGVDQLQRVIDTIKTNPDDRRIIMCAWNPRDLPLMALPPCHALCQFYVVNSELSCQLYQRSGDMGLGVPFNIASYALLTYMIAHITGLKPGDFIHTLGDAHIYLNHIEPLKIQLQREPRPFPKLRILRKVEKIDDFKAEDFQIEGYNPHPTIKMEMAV
Description: FLT PET imaging of thymidylate synthase inhibition in trial patients. The note with it: in vivo. The text has this: 3827-3834. 2008 (Pillai et al).

Series [6] is described as follows: Phase I trial EudraCT3941 (Example 1): safety and toxicity. In kind it is in vivo, human.
Description: as §1

The subject of series [7] is reduced folate carrier (RFC). The conditions noted are these: except at high concentrations; Gibbs et al., 2005; cited from earlier work.
The test system of series [8] is tumour cell proliferation. As to the kind of experiment: Inhibition of tumour cell proliferation in vitro. It is filed as cell-based.
Series [9] deals with T2, folylpolyglutamate synthase (FPGS) (Homo sapiens, UniProt Q05932).
T2 sequence (Q05932 43-587): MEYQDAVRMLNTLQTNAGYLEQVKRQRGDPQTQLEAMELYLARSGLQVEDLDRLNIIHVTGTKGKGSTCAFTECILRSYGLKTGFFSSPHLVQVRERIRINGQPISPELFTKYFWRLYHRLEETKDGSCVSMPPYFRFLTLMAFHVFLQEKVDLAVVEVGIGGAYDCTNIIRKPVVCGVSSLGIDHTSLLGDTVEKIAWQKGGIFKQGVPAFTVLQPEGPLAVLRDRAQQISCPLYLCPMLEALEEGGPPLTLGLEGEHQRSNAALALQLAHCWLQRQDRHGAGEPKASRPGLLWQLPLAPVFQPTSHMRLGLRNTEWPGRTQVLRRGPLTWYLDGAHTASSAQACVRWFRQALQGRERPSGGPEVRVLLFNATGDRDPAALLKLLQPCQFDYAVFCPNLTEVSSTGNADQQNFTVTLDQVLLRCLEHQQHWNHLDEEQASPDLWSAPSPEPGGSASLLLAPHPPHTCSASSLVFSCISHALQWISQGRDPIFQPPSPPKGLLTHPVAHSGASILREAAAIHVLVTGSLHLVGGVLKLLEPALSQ
The conditions noted are these: cited from earlier work.

In series [10] the target is thymidylate synthase (TS). The note with it: read-out: Ki against isolated target thymidine synthase; cited from earlier work.
For series [11] the following is noted: in vivo; cited from earlier work. This is another data set of the same source.
Series [12] deals with platinum-sensitive epithelial ovarian cancer. The conditions noted are these: 1,100 patient Phase III, with paclitaxel and carboplatin; cited from earlier work.
The subject of series [13] is platinum resistant epithelial ovarian cancer. The conditions noted are these: 6 mg/kg every three weeks, cited from earlier work.
Where [14] appears, read: expansion cohort, archival samples analysed.

For `C#CCN(c1ccc(C(=O)N[C@@H](CCC(=O)N[C@H](CCC(=O)O)C(=O)O)C(=O)O)cc1)[C@H]1CCc2cc3nc(CO)[nH]c(=O)c3cc21` [BTG945, N—{N-{4-[N-((6S)-2-Hydroxymethyl-4-oxo-3,4,7,8-tetrahydro-6H-cyclo-penta[g]quinazolin-6-yl)-N-(prop-2-ynyl)amino]benzoyl}-L-γ-glutamyl}-D-glutamic acid], in [1] (doses above 6 mg/m^2), the “period for which concentrations above 0.5 μM were achieved” value worked out at 72 h. For the same compound, the “period for which concentrations between 0.05-1 μM were achieved” value in series [1] (doses of 4 mg/m^2 and above) is recorded as 48 h. In series [1] (human, in vivo, iv, 12 mg/m2), the AUC was found to be 85200 ng·h/mL, the highest concentration (Cmax) worked out at 4950 ng/mL and the half-life is 26 h. The “half life levels on administration to man” value in series [2] is listed as “unusually long”. Besides, the “affinity for α-FR as % of folic acid (FA)” value in series [3] is 70%. Besides, the “patients with HGSOC with partial responses (PRs)” value in series [4] (dose escalation cohort) is reported as 5 patients. Further, the “patients with PRs” value in series [4] (expansion cohort, HGSOC, 12 mg/m^2 Q2W) is 5/11. Besides, in series [4] (setting [14]), the “AFR+ve patients with PR” value is on record as 4/4 and the “AFR−ve patients who did not have a PR” value was 4/4. In addition, the “dose at which toxicity occurred (incidence of BOOP)” value in [5] was 45 mg/m^2. The “thymidylate synthase inhibition by FLT PET imaging” value on thymidylate synthase is on record as “Evidence of thymidylate synthase inhibition”. In addition, in [6] (human, in vivo, 24 weeks), the “grade 3-4 diarrhea, mucositis or neutropenia” value was “No grade 3-4 diarrhea, mucositis or neutropenia”; the incidence of dysgeusia is recorded as 12%; the incidence of fatigue is listed as 36%; the incidence of nausea was 21%. In addition, in series [6] (in vivo), the “cases of suspected drug-related drop in Dlco” value is given as “No cases”; the “conventional toxicities of cytotoxic chemotherapy (myelotoxicity, nephrotoxicity, neurotoxicity)” value is “not observed”; the “dose limiting effects other than BOOP” value was “not seen”; the “occurrence of treatment limiting BOOP” value is “without occurrence”. In [6] (in vivo), the “side effects associated with α-folate receptor antibody conjugates (diarrhoea, blurred vision, nausea)” value is “not observed” and the “side effects normally associated with thymidine synthase inhibitors (neutropenia, diarrhoea, hair loss)” value is reported as “not observed”. In addition, in series [6] (schedule A, weekly IV dosing (QW), 1-6 mg/m^2), the dose limiting toxicity result was “G3 cellulitis”. In addition, in series [6] (schedule B, IV once every 2 weeks (Q2W), 2-12 mg/m^2), the dose limiting toxicity result is reported as “no dose limiting toxicity”. Also, the “affinity for reduced folate carrier (RFC)” value in series [7] is recorded as “negligible affinity”. The “inhibition of tumour cell proliferation in vitro” value in [8] was “concentration and time-dependent inhibition”. For the same compound, in [9], the “substrate for FPGS” value is on record as “not a substrate”. Further, the Ki in [10] was 1.2 nM.

Take `C#CCN(Cc1cc2c(=O)[nH]c(C)nc2cc1C)c1ccc(C(=O)N[C@@H](CCc2nnn[nH]2)C(=O)O)c(F)c1` [Plevitrexed, plevitrexed]: in series [11], the half-life in plasma result was “long”. Further, the “substrate for FPGS” value in [9] is listed as “not a substrate”.

Consider `Cc1nc2ccc(CN(C)c3ccc(C(=O)N[C@@H](CCC(=O)O)C(=O)O)s3)cc2c(=O)[nH]1` [Raltitrexed, raltitrexed], for which the half-life in plasma result in series [11] is listed as “fairly short”. Besides, the “substrate for FPGS” value in series [9] was “excellent substrates”.

For `Nc1nc2[nH]cc(CCc3ccc(C(=O)N[C@@H](CCC(=O)O)C(=O)O)cc3)c2c(=O)[nH]1` [pemetrexed], the half-life in plasma result in [11] is “fairly short”. For the same compound, the “substrate for FPGS” value in series [9] is given as “excellent substrates”.

In the case of “Farletuzumab: FR-α targeted monoclonal antibody”, the “progression free survival (PFS)” value in [12] is recorded as “failed to improve progression free survival”.

In the case of “IMGN853: Antibody-drug conjugate, FR-α targeted”, the “share of patients with three or less prior lines of therapy showing this outcome” value in [13] is 39%. Besides, in [13] (patients with three or less prior lines of therapy), the PFS was 6.7 months.
